Experimental data reported in patent US20220220106A1, “QUINOLINE COMPOUNDS AND PHARMACEUTICAL COMPOSITIONS AND USES THEREOF” (Academy of Military Medical Sciences, priority 2019, published 2022).

Key:
mTOR kinase = target: T1, mTOR kinase (Homo sapiens, UniProt P42345); experiment: In vitro inhibitory activity on mTOR kinase (TR-FRET, GFP-4E-BP1 substrate); assay type: biochemical; settings: for IC50: 0.5 μg/mL mTOR, 0.4 μM GFP-4E-BP1, 3 μM ATP
T1 construct: purchased Thermo Fisher PV4753
Procedure: Preparation of Reaction Buffers:
Basic buffer composition: 50 mM (mmol/L) HEPES (pH 7.5), 1 mM EGTA, 0.01% Tween-20, 10 mM MnCl2, 2 mM DTT (diluted from 500 mM before used).
(2) mTOR kinase buffer solution: 1650 μL of 2.5×mTOR kinase buffer solution was composed of 1640.2 μL of 1× basic buffer and 9.8 μL of mTOR (0.21 mg/mL stock solution), and the final concentration was 0.5 μg/mL.
(3) Detection buffer solution: 3960 μL of 2× detection buffer solution was composed of 3797.1 μL of TR-FRET buffer diluent (purchased from Thermo Fisher, catalog number: PV3574), 4.5 μL of Tb-anti-p4E-BP1 antibody (3.49 μM stock solution, purchased from Thermo Fisher, catalog number: PV4757) and 158 μL of EDTA (500 mM stock solution), and the final concentrations were 2 nM Tb-anti-p4E-BP1 antibody and 10 mM EDTA.
(1) 20 μL of 100% DMSO solution containing 5 mM compound to be tested was added to a 96-well plate.
(2) The compound was serially diluted 3 times in DMSO.
(3) 1 μL of the compound in the previous step was taken, diluted with 19 μL of mTOR kinase buffer, and transferred to another 96-well plate.
(4) 4 μL of mTOR kinase solution (purchased from Thermo Fisher, catalog number: PV4753) was added to a 384-well plate.
(5) 2 μL of the compound in G was taken out and added to the 384-well plate with mTOR kinase, and incubated at room temperature for 15 minutes.
(6) 4 μL of substrate solution was added to initiate the reaction.
The final concentrations of mTOR reaction solution were: 0.5 μg/mL mTOR, 0.4 μM GFP-4E-BP1, 3 μM ATP.
The final concentration of the DMSO solution was 1%.
(7) Incubation was performed for 60 minutes at room temperature.
(8) 10 μL of detection buffer was added. The final concentrations were 2 nM Tb-anti-p4E-BP1 antibody and 10 mM EDTA.
(9) Incubation was performed for 30 minutes at room temperature.
(10) TR-FRET value was read on MD5 multi-mode plate reader (Molecular Devices). The excitation wavelength was 340 nm, the emission wavelength 1 was 495 nm, and the emission wavelength 2 was 520 nm. The ratio of 520 nm/495 nm readings was calculated as TR-FRET value.
IC50 of compound was fitted by nonlinear regression equation:
Y=Bottom+(Top-Bottom)/(1+10^((LogIC50-X)*HillSlope));
X: common logarithm value of compound concentration; Y: TR-FRET value (520 nm/495 nm).

[1] = system: Enterovirus 71 (EV71) H strain; experiment: In vitro anti-EV71 activity (antiviral activity in RD cells, CellTiter-Glo); assay type: cell-based; settings: for IC50: Enterovirus A, 96 h, EV71 H strain, RD cells, 4 days, CellTiter-Glo, read-out: IC50
Summary of the method: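 RD cells infected with 100TCID50 EV71 in DMEM+2% FBS, with compound in 10-point three-fold dilutions, cultured 4 days at 37° C. Cell viability by CellTiter-Glo luminescence; inhibition rate relative to cell control fitted to S-curve for IC50. TD50 derived likewise; SI=TD50/IC50.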

T1 sequence (P42345 1360-2549 limits assumed): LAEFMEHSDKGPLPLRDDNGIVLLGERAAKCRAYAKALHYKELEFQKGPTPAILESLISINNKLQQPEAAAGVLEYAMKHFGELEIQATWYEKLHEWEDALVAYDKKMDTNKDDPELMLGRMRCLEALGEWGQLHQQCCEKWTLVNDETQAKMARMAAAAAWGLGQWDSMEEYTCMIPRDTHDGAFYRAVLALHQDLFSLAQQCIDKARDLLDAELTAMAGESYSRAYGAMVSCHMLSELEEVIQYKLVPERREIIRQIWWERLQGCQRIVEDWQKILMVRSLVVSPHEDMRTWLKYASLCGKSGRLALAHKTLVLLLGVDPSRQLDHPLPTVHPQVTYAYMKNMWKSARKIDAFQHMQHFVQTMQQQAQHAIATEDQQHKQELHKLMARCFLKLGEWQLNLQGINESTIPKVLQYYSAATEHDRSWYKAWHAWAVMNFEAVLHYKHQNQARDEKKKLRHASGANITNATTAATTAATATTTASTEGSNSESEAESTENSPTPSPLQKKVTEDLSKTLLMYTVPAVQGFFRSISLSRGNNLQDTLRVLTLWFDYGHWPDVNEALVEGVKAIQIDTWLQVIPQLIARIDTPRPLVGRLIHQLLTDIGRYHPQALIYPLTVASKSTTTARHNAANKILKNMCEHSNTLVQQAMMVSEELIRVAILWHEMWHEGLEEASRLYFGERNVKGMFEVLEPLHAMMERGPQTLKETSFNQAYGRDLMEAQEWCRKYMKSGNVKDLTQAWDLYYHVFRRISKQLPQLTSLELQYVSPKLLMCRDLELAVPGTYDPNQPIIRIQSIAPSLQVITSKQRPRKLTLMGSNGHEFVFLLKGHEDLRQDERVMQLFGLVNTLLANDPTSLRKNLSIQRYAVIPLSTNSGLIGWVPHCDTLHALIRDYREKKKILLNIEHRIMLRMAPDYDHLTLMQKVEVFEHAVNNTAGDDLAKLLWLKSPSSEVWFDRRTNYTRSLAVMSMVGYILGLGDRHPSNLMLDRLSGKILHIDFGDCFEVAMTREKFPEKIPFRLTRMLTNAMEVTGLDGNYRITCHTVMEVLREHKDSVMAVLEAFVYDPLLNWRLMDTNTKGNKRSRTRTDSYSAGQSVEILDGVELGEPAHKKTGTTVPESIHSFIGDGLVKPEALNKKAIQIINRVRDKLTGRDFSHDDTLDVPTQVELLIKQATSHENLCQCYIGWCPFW

Which results are given for `CN1CCN(c2ccc(-c3ccc4ncc5ccc(=O)n(-c6cccc(C(F)(F)F)c6)c5c4c3)cn2)CC1` [HTL-7-17, 9-{3-[6-(4-methylpiperazin-1-yl)pyridyl]}-2-oxo-1-[3-(trifluoromethyl)phenyl]-1,2-dihydrobenzo[h][1,6]naphthyridine]?
inhibitory activity on mTOR kinase, in words (mTOR kinase): excellent inhibitory activity; IC50 (mTOR kinase): 1.15 nM; IC50 [1]: 100 ± 30 nM

How did the “inhibitory activity on mTOR kinase, in words” value (mTOR kinase) turn out when `COc1ccc(-c2ccc3ncc4ccc(=O)n(-c5cccc(C(F)(F)F)c5)c4c3c2)cn1` [HTL-7-03, 9-[3-(6-methoxy)pyridyl]-2-oxo-1-[3-(trifluoromethyl)phenyl]-1,2-dihydrobenzo[h][1,6]naphthyridine] was run?
Its value is “excellent inhibitory activity”.

What about the IC50 (mTOR kinase) of the same compound?
Its IC50 is 7.25 nM.

And the IC50 [1]?
The IC50 was 40 ± 10 nM.

Which results are given for `CC(C)(C)OC(=O)Nc1ccc(-c2ccc3ncc4ccc(=O)n(-c5cccc(C(F)(F)F)c5)c4c3c2)cn1` [HTL-7-21, 9-[3-(6-tert-butoxycarbonylamino)pyridyl]-2-oxo-1-[3-(trifluoromethyl)phenyl]-1,2-dihydrobenzo[h][1,6]naphthyridine]?
IC50 (mTOR kinase): 11.9 nM; IC50 [1]: 2080 ± 2290 nM

How did the “inhibitory activity on mTOR kinase, in words” value (mTOR kinase) turn out when `COc1ncc(-c2ccc3ncc4ccc(=O)n(-c5cccc(C(F)(F)F)c5)c4c3c2)cn1` [HTL-7-06, 9-[5-(2-methoxy)pyrimidyl]-2-oxo-1-[3-(trifluoromethyl)phenyl]-1,2-dihydrobenzo[h][1,6]naphthyridine] was run?
The value was “excellent inhibitory activity”.

What about the IC50 (mTOR kinase) of the same compound?
Its IC50 is 4.82 nM.

And the IC50 [1]?
Its IC50 is 50 ± 10 nM.

Which results are given for `Nc1cccc(Nc2ccc3ncc4ccc(=O)n(-c5cccc(C(F)(F)F)c5)c4c3c2)c1` [HTL-6-11, 9-(3-aminophenyl)imino-2-oxo-1-[3-(trifluoromethyl)phenyl]-1,2-dihydrobenzo[h][1,6]naphthyridine]?
inhibitory activity on mTOR kinase, in words (mTOR kinase): moderate inhibitory activity; IC50 (mTOR kinase): 255 nM; in vitro anti-EV71 activity, in words ([1]; EV71, RD cells): moderate activity; IC50 [1]: 890 nM
